Values quoted from earlier work, collected in patent publication US11512068B2, “Process for the preparation of crystalline ridinilazole using acid addition salts” (Sandoz AG, priority 2017, dated 2022).

Tests used:
[1] = system: Clostridium difficile
[2] = system: clostridia; settings: phase 1 trial, oral
[3] = phase 1 trial, oral
[4] = system: Clostridium difficile; settings: treatment with ridinilazole

c1cc(-c2nc3ccc(-c4ccc5nc(-c6ccncc6)[nH]c5c4)cc3[nH]2)ccn1 [Ridinilazole, 5,5′bis[2-(4-pyridinyl)-1H-benzimidazole]]
post-antibiotic effect [1]: prolonged post-antibiotic effect
selectivity for clostridia over other faecal bacteria [2]: specifically targets clostridia whilst sparing other faecal bacteria
tolerability [3]: well tolerated
toxin production [4]: decreased toxin production
